Tests used:
[1] = system: lung cancer cells (H1299); assay: Colony-forming assay with gamma irradiation, lung cancer cells; type: cell-based; settings: H1299, 1 μM to 10 μM for 2 hours, gamma radiation, 7 days, FIG. 8
Procedure: (§1) Lung cancer cells (H1299, ATCC, CRL-5803™), brain cancer cells (U87MG, ATCC, HTB-14™ human glioblastoma), breast cancer cells (MDA-MB231, ATCC, HTB-26™ human breast adenocarcinoma), and colorectal cancer cells (HCT116, ATCC, CCL-247™ human colorectal carcinoma) were each inoculated in each well of a 96-well plate containing Rosewell Park Memorial Institute medium (RPMI) 1640 enriched with 10% FBS, 100 μg/ml of streptomycin, and 100 unit/ml of penicillin. Then, these cells were each treated with 2-(5-bromonaphthalene-1-yl)benzo[d]oxazole-5-amine (Derivative #1) for 2 hours in a concentration of 1 μM to 10 μM, were irradiated using gamma radiation according to radiation dose, and were cultured for 7 days under conditions of 5% CO2 and a temperature of 37° C. The cultured cells were washed out with phosphate buffered saline (PBS), and then, were stained with a mixture of 1% methylene blue and 100% methanol. Afterwards, a number of colony-forming cells was counted, and all the treatment above were repeatedly performed 3 times.

[2] = system: colorectal cancer cells (HCT116); assay: Colony-forming assay with gamma irradiation, colorectal cancer cells; type: cell-based, human; settings: HCT116, 1 μM to 10 μM for 2 hours, gamma radiation, 7 days, FIG. 11
Procedure: as §1

[3] = system: lung cancer cells (H1299); assay: CCK-8 cell viability analysis (cytotoxicity of the derivative alone); type: cell-based; settings: 1 μM, 5 μM and 10 μM, FIG. 2
Text: (§2) Here, in order to confirm that the inhibitory activity of luciferase was caused by an Nrf2 inhibitor, rather than by apoptosis of the cells, cell counting kit-8 (CCK-8) (Dojindo, Japan) for the determination of cell viability and a spectroscopic device (Labsystems, USA) were used to measure absorbance values of the cells at a wavelength of 480 nm.
as §2, with “by” for “by an”, “inhibitors, i.e., Derivative #2 to #10,” for “inhibitor,”, “CCK-8” for “cell counting kit-8 (CCK-8)”

Nrf2 protein = molecular target: T1, Nrf2 protein (Homo sapiens, UniProt Q16236); assay: Western blot of Nrf2 protein in tBHQ-treated lung cancer cells; type: cell-based; settings: 5 μM or 10 μM, 2 hours, FIG. 5
T1 construct: endogenous in cells
T1 sequence (Q16236 1-605): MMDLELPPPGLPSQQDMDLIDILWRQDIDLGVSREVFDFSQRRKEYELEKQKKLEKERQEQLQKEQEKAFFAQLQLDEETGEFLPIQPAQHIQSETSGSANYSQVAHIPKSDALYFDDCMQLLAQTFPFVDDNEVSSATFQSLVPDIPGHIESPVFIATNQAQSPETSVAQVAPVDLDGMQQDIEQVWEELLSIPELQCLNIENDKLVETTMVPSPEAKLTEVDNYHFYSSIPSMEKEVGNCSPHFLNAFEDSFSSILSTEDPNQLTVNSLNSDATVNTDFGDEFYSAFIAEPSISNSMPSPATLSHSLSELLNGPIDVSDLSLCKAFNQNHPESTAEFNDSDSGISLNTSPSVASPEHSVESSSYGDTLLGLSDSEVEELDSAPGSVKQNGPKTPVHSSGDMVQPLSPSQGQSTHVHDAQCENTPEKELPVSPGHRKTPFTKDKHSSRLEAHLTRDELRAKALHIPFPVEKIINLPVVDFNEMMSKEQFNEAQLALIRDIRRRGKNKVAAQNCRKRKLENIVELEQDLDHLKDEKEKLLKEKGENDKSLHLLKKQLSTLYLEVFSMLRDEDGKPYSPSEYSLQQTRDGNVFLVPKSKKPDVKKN
Procedure: (§3) By using a western blot, it was confirmed whether 2-(5-bromonaphthalene-1-yl)benzo[d]oxazole-5-amine (Derivative #1), which is a Nrf2 inhibitor, has targeted a Nrf2 protein and its downstream antioxidant enzyme heme oxygenase (HO)-1, based on the inhibitory activity of the ARE-pGL3 luciferase.
(§4) The lung cancer cells were treated with 2-(5-bromonaphthalene-1-yl)benzo[d]oxazole-5-amine (Derivative #1) in a concentration of about 5 μM or about 10 μM, and 2 hours later, the protein expression was analyzed to measure amounts of Nrf2 and HO-1 proteins, which were increased by tBHQ treatment.
(§5) First, the cells treated with 2-(5-bromonaphthalene-1-yl)benzo[d]oxazole-5-amine (Derivative #1) were obtained, and then, cytosolic fractions were obtained therefrom by using a method commonly used in the art.
(§6) The cytosolic fractions were separated by electrophoresis using 10% gradient SDS-PAGE, and then, were transferred to a nitrocellulose membrane (BioRad, Hercules, Calif., USA). The membrane was blocked with 5% skim milk, and then, a reaction with primary antibodies, e.g., anti-Nrf2 (Abcam, USA) and an HO-1 antibody (Oncogene Research Products, USA), was allowed. […]

[4] = system: brain cancer cells (U87MG); assay: Colony-forming assay with gamma irradiation, brain cancer cells; type: cell-based, human; settings: 1 μM to 10 μM for 2 hours, gamma radiation, 7 days, FIG. 9
Procedure: as §1

Nrf2 = assay: ARE-pGL3 (Nrf2-responsive) luciferase reporter analysis in tBHQ-treated lung cancer cells; type: cell-based
Procedure: Lung cancer cells (H1299) purchased from American Type Culture Collection (ATCC, CRL-5803™) were cultured in Dulbecco's modified Eagle's medium (DMEM) enriched with 10% fetal bovine serum (FBS), 100 μg/ml of streptomycin, and 100 unit/ml of penicillin, under conditions of 5% CO2 and a temperature of 37° C.
Then, the cells were transformed by using Lipofectamine 2000 (In vitrogen, Life technologies, USA) (i.e., a plasmid transfection reagent used in DMEM) so that an antioxidant response element (ARE)-pGL3 luciferase plasmid to which an Nrf2 transcription factor can bind was introduced to the cells, according to the manufacturer's instructions.
About 20,000 of the transformed cells were inoculated in each well of a 96-well plate, and then, the cells were cultured for 24 hours under the same conditions described above. Afterwards, tertiary butylhydroquinone (tBHQ) that activates ARE was added to each well. Accordingly, it was confirmed that activity of luciferase was increased at least about 3 times as large as activity of luciferase in cells that were not treated with tBHQ.
Next, the tBHQ-treated cells were additionally treated with 2-(5-bromonaphthalene-1-yl)benzo[d]oxazole-5-amine (ChemBridge, cat#5721754, San Diego, Calif., USA) (Derivative #1) in concentration of 1 μM, 5 μM, and 10 μM, and then, were incubated for 18 hours. […]

[5] = system: lung cancer cell strain (H1299); assay: CCK-8 analysis after derivative plus doxorubicin (anticancer agent sensitivity); type: cell-based; settings: 48 hours, FIG. 13
Procedure: In order to confirm whether the above-described benzo[d]oxazole derivative that increases the apoptotic effects of ROS also have such apoptotic effects when the benzo[d]oxazole derivative is used in combination with, other than radiation, an anticancer agent to produce ROS, the synthesized benzo[d]oxazole derivative was treated in combination with doxorubicin, which is an anticancer agent.
The lung cancer cell strain (H1299) was treated with each of the synthesized benzo[d]oxazole derivatives (Derivatives #1 to #10) for 2 hours in a concentration of 10 μM, and then, were treated with doxorubicin in a concentration of 150 nM. After 48 hours of the treatment, CCK-8 for the determination of cell viability was used to measure the lung cancer cells that were died by apoptosis.

[6] = system: breast cancer cells (MDA-MB231); assay: Colony-forming assay with gamma irradiation, breast cancer cells; type: cell-based, human; settings: MDA-MB231, 1 μM to 10 μM for 2 hours, gamma radiation, 7 days, FIG. 10
Procedure: as §1

heme oxygenase (HO)-1 = assay: Western blot of HO-1 protein in tBHQ-treated lung cancer cells; type: cell-based; settings: 5 μM or 10 μM, 2 hours, FIG. 5
Procedure: as §3, §4, §5, §6

[7] = system: lung cancer cells (H1299); assay: ROS production by DCF-DA staining and FACS, combined with irradiation; type: cell-based
Procedure: The lung cancer cells (H1299) that were cultured in the same manner as in Example 1 were treated with dihydrodichlorofluorescein diacetate (DCF-DA, Sigma, USA) and were subjected to fluorescence staining. The stained cells were then treated with 2-(5-bromonaphthalene-1-yl)benzo[d]oxazole-5-amine (Derivative #1) for 2 hours in a concentration of 5 μM or 10 μM, and 5 Gy of irradiation. Afterwards, an increase in ROS production upon inhibition of Nrf2 was analyzed by FACS.
In addition, in order to confirmed whether the values measured by FACS analysis refer to the ROS production, the lung cancer cells (H1299) were treated with 2 mM of N-acetyl-L-cysteine (NAC), which is a ROS inhibitor, and then, were treated in combination with 2-(5-bromonaphthalene-1-yl)benzo[d]oxazole-5-amine (Derivative #1) in a concentration of 10 μM and irradiation. As a result, it was confirmed that the ROS production was inhibited.

**Q.** How did the “apoptotic effects on cancer cells by irradiation (colony-forming cells)” value (shortened to “apoptotic effects on cancer cells”) [1] turn out when Nc1ccc2oc(-c3cccc4c(Br)cccc34)nc2c1 [Derivative #1, 2-(5-bromonaphthalene-1-yl)benzo[d]oxazole-5-amine] was run?
**A.** increased apoptotic effects

**Q.** And the “apoptotic effects on cancer cells” value [2]?
**A.** increased apoptotic effects

**Q.** And the “cytotoxicity (CCK-8 viability)” value [3]?
**A.** no cytotoxicity

**Q.** What about the “amount of Nrf2 protein increased by tBHQ treatment” value (Nrf2 protein) of the same compound?
**A.** reduced depending on the concentration

**Q.** And the “apoptotic effects on cancer cells” value [4]?
**A.** increased apoptotic effects

**Q.** What about the “inhibitory activity of ARE-responsive luciferase” value (Nrf2; tBHQ-treated H1299, 1 μM, 5 μM and 10 μM, 18 hours, FIG. 1) of the same compound?
**A.** dependent upon concentration

**Q.** What about the “apoptotic cell death relative to control group” value ([5]; H1299, derivative 10 μM for 2 hours then doxorubicin 150 nM) of the same compound?
**A.** about 3.7 times

**Q.** What about the “apoptotic effects on cancer cells” value [6] of the same compound?
**A.** increased apoptotic effects

**Q.** What about the “amount of HO-1 protein increased by tBHQ treatment” value (heme oxygenase (HO)-1) of the same compound?
**A.** reduced depending on the concentration

**Q.** And the “ROS production relative to 5 Gy of irradiation only” value ([7]; H1299, 5 μM for 2 hours plus 5 Gy irradiation)?
**A.** about 3.5 times

**Q.** And the “ROS production relative to 5 Gy of irradiation only” value ([7]; H1299, 10 μM for 2 hours plus 5 Gy irradiation)?
**A.** ~4.6 times

**Q.** CC(=O)N[C@@H](CS)C(=O)O [NAC, N-acetyl-L-cysteine, reference compound] was tested. Which “ROS production after ROS inhibitor treatment” value ([7]; H1299, 2 mM NAC, then Derivative #1 10 μM plus irradiation) did it give?
**A.** inhibited

**Q.** How did the “apoptotic cell death relative to control group” value ([5]; H1299, doxorubicin 150 nM only) turn out when COc1cccc2c1C(=O)c1c(O)c3c(c(O)c1C2=O)C[C@@](O)(C(=O)CO)C[C@@H]3O[C@H]1C[C@H](N)[C@H](O)[C@H](C)O1 [doxorubicin, reference compound] was run?
**A.** about 1.35 times

**Q.** For CC(C)(C)c1cc(O)ccc1O [tBHQ, tertiary butylhydroquinone, reference compound], which “activity of luciferase relative to cells not treated with tBHQ” value (Nrf2; ARE-pGL3 transformed H1299 cells, tBHQ added to each well) is on record?
**A.** at least 3 times
